In patent publication US20130310356A1, “METHOD FOR TREATING BRAIN CANCER” (Niiki Pharma Acquisition Corp. 2, priority 2010, published 2013):

Assays:
U373 [1] = settings: cited from earlier work
U87 [2] = settings: cited from earlier work
T98G [3] = settings: cited from earlier work
[4] = system: human glioblastoma cell line U251; experiment: ATCC MTT Cell Proliferation Assay, U251; format: cell-based; settings: U251, 72 hours treatment
Experimental: Tris(8-quinolinolato)gallium(III) and temozolomide were tested in human glioblastoma cell line U251 (which is resistant to BCNU, See Beljanski et al., Anticancer Res., 13(6A):2301-8 (1993)). Specifically, ATCC's MTT Cell Proliferation Assay® was performed using glioblastoma cell line U251. Stock cultures were allowed to grow to 70-80% confluence for this study. The anti-proliferative activity of tris(8-quinolinolato)gallium(III) or temozolomide against the cell line was evaluated in vitro using the ATCC's MTT Cell Proliferation Assay (Catalog No. 30-1010K). Cultures were maintained in a 37° C. humidified 5% CO2/95% air atmosphere. The cells were treated with tris(8-quinolinolato)gallium(III) or temozolomide at 1,000 μM, or a series of 4x dilutions thereof (250 μM, 62.5 μM, etc.). 100 μl of medium was removed from each well at 72 hours post-treatment and 10 μl MTT reagent was added to each well. The plates were incubated at 37° C. for 4 hours and then 100 μl of detergent was added. The plates were left overnight at room temperature in the dark and was read on a plate reader using SoftMax® Pro (version 5.2, Molecular Devices).
The absorbance data was analyzed as follows: Absorbance values were converted to Percent of Control and plotted against test agent concentrations for IC50 calculations using SoftMax® Pro (version 5.2, Molecular Devices). The plate blank signal average was subtracted from all wells prior to calculating the Percent of Control. Percent of Control values were calculated by dividing the absorbance values for each test well by the No Drug Control average (column 11 values; cells +vehicle control) and multiplying by 100. Plots of Compound Concentration versus Percent of Control were analyzed using the 4-parameter equation to obtain IC50 values and other parameters that describe the sigmoidal dose response curve.
The IC50 value for the test agent was estimated by curve-fitting the data using the following four parameter-logistic equation: […]

U373 [5] = experiment: MTT assay, glioblastoma cell line U373; format: cell-based; settings: drug incubated 3 hours, MTT 72 hours after initial incubation
Experimental: (§1) To test the activities of tris(8-quinolinolato)gallium(III) (“drug”), MTT assays were performed using glioblastoma cell lines. Cells were plated (2×10^3 cells in 100 μl/well) in 96-well plates and allowed to recover for 24 hours. The drug was added in another 100 μl growth medium and incubated with cultured cells for 3 hours before the cell culture medium was replaced to remove the drug. Cell death was measured 72 hours after the initial incubation by MTT assay following the manufacturer's recommendations (EZ4U, Biomedica, Vienna, Austria).

U87 [6] = experiment: MTT assay, glioblastoma cell line U87; format: cell-based
Experimental: as §1

T98G [7] = experiment: MTT assay, glioblastoma cell line T98G; format: cell-based
Experimental: as §1

glioma cell line U87 = experiment: 3-dimentional tumor model (HuBiogel), MTT assay and Calcein AM live-cell staining; format: cell-based
Experimental: The compound tris(8-quinolinolato)gallium(III) was tested in a 3-dimentional tumor model derived from glioma cell line U87. Specifically, cells were trypsinized, washed, counted by trypan blue exclusion. Tumor beads were then prepared by mixing 20,000 cells/10 μl of HuBiogel (4 mg/mL) (See U.S. patent application Ser. No. 10/546,506, which is incorporated herein by reference). The 3-D tumor beads were cultivated for 72 hours in multi-well plates with complete media (10% FBS) in a 37° C. incubator +5% CO2. Mini-tumors were treated with various concentrations of the test compound tris(8-quinolinolato)gallium(III) in media (final 0.2-0.3% DMSO) or control (DMSO). Repeated drug treatment was done by removing the culture media and replacing with fresh media with drug compound or DMSO. On Day 3, MTT assay and live-cell staining with Calcein AM were performed (5 beads/assay set).
Statistical analysis of data sets (Average, T-test, GI-50) was performed using MS-Excel program. The average GI-50 (the drug concentration required for growth inhibition at 50%) is 0.94 μM.

ACHU = experiment: MTT assay, glioblastoma cell line ACHU; format: cell-based; settings: drug incubated 3 hours, MTT 72 hours after initial incubation
Experimental: as §1

Row | Structure (SMILES) | BCNU (% cytostasis with 50 μg/ml BCNU) (U373 [1]) [%] | BCNU (% cytostasis with 50 μg/ml BCNU) (U87 [2]) [%] | BCNU (% cytostasis with 50 μg/ml BCNU) (T98G [3]) [%] | IC50 [4] [nM] | IC50 ([4]; Homo sapiens, U-251) [nM] | IC50 (U373 [5]) [nM] | activity against cell line (U87 [6]; U87, relatively resistant to BCNU) | IC50 (U87 [6]; U87, drug incubated 3 hours, MTT 72 hours after initial incubation) [nM] | IC50 (T98G [7]; drug incubated 3 hours, MTT 72 hours after initial incubation) [nM] | activity in cells (T98G [7]; resistant to temozolomide) | GI50 (glioma cell line U87; U87 3-D tumor beads in HuBiogel, MTT on Day 3, read-out: average GI-50 (drug concentration required for growth inhibition at 50%)) [nM] | tumor killing in live-cell staining/image analysis (glioma cell line U87; U87 3-D tumor beads, Calcein AM, Day 3) | tumor proliferation activity (glioma cell line U87; U87 3-D tumor beads, MTT, Day 3) | IC50 (ACHU) [nM]
1 | O=NN(CCCl)C(=O)NCCCl [BCNU] | 30.4 ± 8.6 | 18.5 ± 8.2 | 37.5 ± 8.6 | 53700 | – | – | – | – | – | – | – | – | – | –
2 | Cn1nnc2c(C(N)=O)ncn2c1=O [temozolomide] | – | – | – | – | 283000 | – | – | – | – | – | – | – | – | –
3 | [Ga+3].[O-]c1cccc2cccnc12.[O-]c1cccc2cccnc12.[O-]c1cccc2cccnc12 [tris(8-quinolinolato)gallium(III)] | – | – | – | 4040 | – | 2500 | active | 940 | 2000 | active | 940 | dose-dependent tumor killing | significantly inhibited | 300
